Test results from US20230373985A1 (Origenis Gmbh, priority 2020, published 2023).

Biological target: T1, wt human TYK2, catalytic site (Homo sapiens, UniProt P29597)
T1 construct: wt human TYK2, catalytic site; purchased SignalChem
T1 sequence (P29597 897-1176 limits assumed): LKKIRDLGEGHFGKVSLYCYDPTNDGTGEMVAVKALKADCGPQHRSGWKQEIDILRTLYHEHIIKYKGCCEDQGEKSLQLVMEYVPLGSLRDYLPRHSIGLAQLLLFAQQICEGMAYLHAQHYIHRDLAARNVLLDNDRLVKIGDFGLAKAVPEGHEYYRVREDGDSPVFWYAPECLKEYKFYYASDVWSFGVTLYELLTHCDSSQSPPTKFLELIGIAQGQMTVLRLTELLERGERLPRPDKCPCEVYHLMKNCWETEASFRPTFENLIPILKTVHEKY
Assay: HTRF KinEASE assay, TYK2
Assay type: biochemical
Conditions: 1 μM ATP; read-out: IC50, Activity Toward TYK2
Procedure: Basic protocol for HTRF KinEASE assay (Cisbio/FRA) inhibitor studies involved two steps: • Enzymatic step: Addition of 4 μL of test compound in corresponding DMSO dilutions, 4 μL of kinase/substrate mixture, 2 μL of ATP into 384 well small volume plates. Incubation for at least 30 minutes at room temperature. • Detection step: Addition of 5 μL antibody and 5 μL streptavidin-XL665, read plate after 60 minutes. Data analysis of emission ratios according KinEASE assay protocol.
(§1) Kinase and assay components were adjusted to final concentrations according to kit protocol. For TYK2: 2 nM wt human TYK2, catalytic site (SignalChem/CAN), 1 μM HTRF KinEASE-TK Substrate-biotin, 1 μM ATP in 1× Kinase Buffer. For JAK1: 4 nM wt human JAK1, catalytic site (ThermoFisher/USA), 1 μM HTRF KinEASE-TK Substrate-biotin, 2.5 μM ATP in 1× Kinase Buffer. For JAK2: 1 nM wt human JAK2, catalytic site (SignalChem/CAN), 1 μM HTRF KinEASE-TK Substrate-biotin, 100 μM ATP in 1× Kinase Buffer.
as §1

Row | SMILES | IC50 [µM]
1 | CCCc1nc(C(F)(F)F)nn1-c1ccc(Nc2cn(-c3c(Cl)cccc3Cl)nc2C(N)=O)cc1 [compound 279, 1-(2,6-dichlorophenyl)-4-((4-(5-propyl-3-(trifluoromethyl)-1H-1,2,4-triazol-1-yl)phenyl)amino)-1H-pyrazole-3-carboxamide] | 0.1 to 1
2 | CCNC(=O)c1ccc(Nc2cn(-c3c(F)cccc3OC)nc2C(N)=O)cn1 [compound 25, 5-((3-carbamoyl-1-(2-fluoro-6-methoxyphenyl)-1H-pyrazol-4-yl)amino)-N-ethylpicolinamide] | 0.1 to 1
3 | CCn1nc(C(F)(F)F)nc1-c1ccc(Nc2cn(-c3c(F)cccc3Cl)nc2C(N)=O)cc1 [compound 289, 1-(2-chloro-6-fluorophenyl)-4-((4-(1-ethyl-3-(trifluoromethyl)-1H-1,2,4-triazol-5-yl)phenyl)amino)-1H-pyrazole-3-carboxamide] | 0.1 to 1
4 | NC(=O)c1nn(-c2c(Cl)cccc2Cl)cc1Nc1ccccc1 [compound 21, 1-(2,6-dichlorophenyl)-4-(phenylamino)-1H-pyrazole-3-carboxamide] | 0.1 to 1
5 | NC(=O)c1nn(-c2c(Cl)cccc2Cl)cc1Nc1ccc(-n2nnc3ccccc32)cc1 [compound 81, 4-((4-(1H-benzo[d][1,2,3]triazol-1-yl)phenyl)amino)-1-(2,6-dichlorophenyl)-1H-pyrazole-3-carboxamide] | 0.1 to 1
6 | NC(=O)c1nn(-c2c(Cl)cccc2Cl)cc1Nc1ccc(-c2nc(C(F)(F)F)cn2C2COC2)cc1 [compound 301, 1-(2,6-dichlorophenyl)-4-((4-(1-(oxetan-3-yl)-4-(trifluoromethyl)-1H-imidazol-2-yl)phenyl)amino)-1H-pyrazole-3-carboxamide] | < 0.01
7 | CCc1nc(C(F)(F)F)nn1-c1ccc(Nc2cn(-c3c(Cl)cccc3Cl)nc2C(N)=O)cn1 [compound 329, 1-(2,6-dichlorophenyl)-4-((6-(5-ethyl-3-(trifluoromethyl)-1H-1,2,4-triazol-1-yl)pyridin-3-yl)amino)-1H-pyrazole-3-carboxamide] | 0.1 to 1
8 | NC(=O)c1nn(-c2c(F)cccc2F)cc1Nc1ccc(N)cn1 [compound 6, 4-((5-aminopyridin-2-yl)amino)-1-(2,6-difluorophenyl)-1H-pyrazole-3-carboxamide] | 0.1 to 1
9 | CC1(C)CN(C(=O)c2ccc(Nc3cn(-c4c(Cl)cccc4Cl)nc3C(N)=O)nc2)C1 [compound 465, 1-(2,6-dichlorophenyl)-4-((5-(3,3-dimethylazetidine-1-carbonyl)pyridin-2-yl)amino)-1H-pyrazole-3-carboxamide] | 0.1 to 1
10 | CC(C)c1nc(C(F)(F)F)nn1-c1ccc(Nc2cn(-c3c(Cl)cccc3Cl)nc2C(N)=O)cc1 [compound 274, 1-(2,6-dichlorophenyl)-4-((4-(5-isopropyl-3-(trifluoromethyl)-1H-1,2,4-triazol-1-yl)phenyl)amino)-1H-pyrazole-3-carboxamide] | 0.1 to 1
11 | Cc1cc(Nc2cn(-c3ccccc3F)nc2C(N)=O)ncn1 [compound 5, 1-(2-fluorophenyl)-4-((6-methylpyrimidin-4-yl)amino)-1H-pyrazole-3-carboxamide] | 0.1 to 1
12 | CCc1ncnn1-c1ccc(Nc2cn(-c3c(Cl)cccc3Cl)nc2C(N)=O)cn1 [compound 343, 1-(2,6-dichlorophenyl)-4-((6-(5-ethyl-1H-1,2,4-triazol-1-yl)pyridin-3-yl)amino)-1H-pyrazole-3-carboxamide] | 0.1 to 1
13 | CCn1cc(C(F)(F)F)nc1-c1ccc(Nc2cn(-c3c(Cl)cccc3Cl)nc2C(N)=O)cn1 [compound 339, 1-(2,6-dichlorophenyl)-4-((6-(1-ethyl-4-(trifluoromethyl)-1H-imidazol-2-yl)pyridin-3-yl)amino)-1H-pyrazole-3-carboxamide] | 0.1 to 1

Second part, the compound after the results:

Row | IC50 [µM] | SMILES
14 | 0.1 to 1 | Cc1cc(Nc2cn(-c3c(Cl)cccc3Cl)nc2C(N)=O)cnc1-n1cccn1 [compound 346, 1-(2,6-dichlorophenyl)-4-((5-methyl-6-(1H-pyrazol-1-yl)pyridin-3-yl)amino)-1H-pyrazole-3-carboxamide]
15 | 0.1 to 1 | CC(C)n1nc(C(F)(F)F)nc1-c1ccc(Nc2cn(-c3c(Cl)cccc3Cl)nc2C(N)=O)cc1 [compound 280, 1-(2,6-dichlorophenyl)-4-((4-(1-isopropyl-3-(trifluoromethyl)-1H-1,2,4-triazol-5-yl)phenyl)amino)-1H-pyrazole-3-carboxamide]
16 | 0.1 to 1 | NC(=O)c1nn(-c2c(Cl)cccc2Cl)cc1Nc1ccc(-n2nc3c(c2C(F)(F)F)CCCC3)cc1 [compound 236, 1-(2,6-dichlorophenyl)-4-((4-(3-(trifluoromethyl)-4,5,6,7-tetrahydro-2H-indazol-2-yl)phenyl)amino)-1H-pyrazole-3-carboxamide]
17 | 0.01 to 0.1 | Cc1cccc2nnc(-c3ccc(Nc4cn(-c5c(Cl)cc(F)cc5Cl)nc4C(N)=O)cn3)n12 [compound 477, 1-(2,6-dichloro-4-fluorophenyl)-4-((6-(5-methyl-[1,2,4]triazolo[4,3-a]pyridin-3-yl)pyridin-3-yl)amino)-1H-pyrazole-3-carboxamide]
18 | 0.1 to 1 | NC(=O)c1nn(-c2c(Cl)cccc2Cl)cc1Nc1ccc(C(=O)N2CC[C@H](N)C2)cn1 [compound 368, (S)-4-((5-(3-aminopyrrolidine-1-carbonyl)pyridin-2-yl)amino)-1-(2,6-dichlorophenyl)-1H-pyrazole-3-carboxamide]
19 | 0.1 to 1 | COCc1nc(C(F)(F)F)nn1-c1ccc(Nc2cn(-c3c(Cl)cccc3Cl)nc2C(N)=O)cn1 [compound 328, 1-(2,6-dichlorophenyl)-4-((6-(5-(methoxymethyl)-3-(trifluoromethyl)-1H-1,2,4-triazol-1-yl)pyridin-3-yl)amino)-1H-pyrazole-3-carboxamide]
20 | 0.1 to 1 | Cn1nnc(-c2ccc(Nc3cn(-c4c(Cl)cccc4Cl)nc3C(N)=O)nc2)n1 [compound 434, 1-(2,6-dichlorophenyl)-4-((5-(2-methyl-2H-tetrazol-5-yl)pyridin-2-yl)amino)-1H-pyrazole-3-carboxamide]
21 | 0.1 to 1 | CCn1nc(C(F)(F)F)nc1-c1ccc(Nc2cn(-c3c(Cl)cccc3Cl)nc2C(N)=O)cc1 [compound 278, 1-(2,6-dichlorophenyl)-4-((4-(1-ethyl-3-(trifluoromethyl)-1H-1,2,4-triazol-5-yl)phenyl)amino)-1H-pyrazole-3-carboxamide]
22 | 0.1 to 1 | Cc1cccc2[nH]nc(-c3ccc(Nc4cn(-c5c(Cl)cccc5Cl)nc4C(N)=O)cn3)c12 [compound 427, 1-(2,6-dichlorophenyl)-4-((6-(4-methyl-3H-indazol-3-ylidene)-1,6-dihydropyridin-3-yl)amino)-1H-pyrazole-3-carboxamide]
23 | 0.1 to 1 | CCCn1cc(C(F)(F)F)nc1-c1ccc(Nc2cn(-c3c(Cl)cccc3Cl)nc2C(N)=O)cc1 [compound 311, 1-(2,6-dichlorophenyl)-4-((4-(1-propyl-4-(trifluoromethyl)-1H-imidazol-2-yl)phenyl)amino)-1H-pyrazole-3-carboxamide]
24 | 0.1 to 1 | NC(=O)c1nn(-c2c(Cl)cccc2Cl)cc1Nc1ccc(C(=O)N2CC(F)(F)C(F)(F)C2)cn1 [compound 369, 1-(2,6-dichlorophenyl)-4-((5-(3,3,4,4-tetrafluoropyrrolidine-1-carbonyl)pyridin-2-yl)amino)-1H-pyrazole-3-carboxamide]
